Experimental data reported in paper PMC11040670, “Mechanistic and Kinetic Insights into Cellular Uptake of Biomimetic Dinitrosyl Iron Complexes and Intracellular Delivery of NO for Activation of Cytoprotective HO-1” (JACS Au, 2024).
Several values for one entry are separate records, joined by “and”; a condition that tells them apart may be missing. Equal values may be shown once. Marks after values point to notes of the source that are not given here.

Columns and labels:
[1] = target: T1, metMb (Equus caballus, UniProt P68082); test: Transfer of NO− to metMb yielding MbNO (UV–vis); type: biochemical; settings: for reaction time for complete conversion of metMb into MbNO: metMb 5 μM/Cys 200 μM, generated [(NO)2Fe(SR)(SCys)]n−, phosphate buffer (pH 7.4), anaerobic; for change of UV–vis absorption bands of metMb (NO−-transfer): metMb in the presence of BSA (50 mg/mL)
T1 construct: purchased Sigma
Description: After addition of 30 μL of 500 μM stock solution of DNIC–COOH (in DMSO) to a 4 mL quartz cuvette containing 5 μM metMb and 200 μM Cys in 3 mL of 25 mM PBS (pH 7.4), UV–vis spectra for this mixture solution were measured every 30 min. Transformation of […] into MbNO was achieved after reaction for 4 h based on the complete shift of UV–vis absorption bands from (410, 502, and 629) nm to (419, 548, and 578) nm.
Reactions of (a) 5 μM of DNIC–COOMe with 5 μM of metMb in the presence of 200 μM of Cys, (b) 5 μM of DNIC–COOH/DNIC–COOMe with 5 μM of deoxyMb in the presence of 200 μM of Cys, and (c) 5 μM of DNIC–COOH/DNIC–COOMe with 5 μM of metMb in the presence of 50 mg/mL BSA were performed under a similar manner.

[2] = test system: MSC/N2a/HCEC; test: Cell viability (CCK-8) of MSC/N2a/HCEC treated with DNICs; type: cell-based; settings: 24 h; for effect on cell viability: N2a/HCEC
Description: Cell viability study of MSC, N2a, and HCEC cells with or without the treatment of DNIC–COOH was performed using a Cell Counting Kit-8 (IMT Formosa New Materials Co., Ltd., Taiwan) according to the manufacturer’s protocol. Briefly, cells were seeded into a 96-well plate at a density of 4 × 10^3 cells/well for MSC, 1 × 10^4 cells/well for N2a, and 8 × 10^3 cells/well for HCEC, respectively, and incubated overnight. On the next day, cells were treated with DNIC–COOH at different concentrations and incubated for 24 h. The culture medium was then removed before the cells were washed with DPBS. After addition of fresh medium containing CCK-8 solution to the cells and incubation for 1–3 h, the absorbance at 450 nm was then measured on a microplate reader (SpectraMax iD3, Molecular Devices, San Jose, CA) with a reference wavelength of 650 nm. Three independent experiments were executed, and the results were represented as mean ± SEM% (n = 3) with the untreated cells (control) as 100% viability. Cell viability studies of MSC/N2a/HCEC cells (1) with the treatment of DNIC–COOMe for 24 h, (2) with the treatment of NEM for 0.5 h, (3) with the treatment of chlorpromazine (CPZ; TCI) for 0.5 h, (4) with the treatment of methyl-β-cyclodextrin (MβCD; Thermo Fisher Scientific) for 0.5 h, (5) with the treatment of genistein (Alfa Chemistry) for 0.5 h, (6) with the sequential treatments of ODQ for 1 h and DNIC–COOH for 3 h (MSC)/10 h (N2a)/6 h (HCEC), and (7) with the cotreatment of PTIO and DNIC–COOH for 3 h (MSC)/10 h (N2a)/6 h (HCEC), respectively, were performed in a similar manner. In addition to CCK-8 assay, a live/dead staining was performed using a ViaQuant Viability/Cytotoxicity Kit (GeneCopoeia, Rockville, MD) according to the manufacturer’s instruction.

[3] = test system: N2a; test: Intracellular release of NO (DAF-FM fluorescence) in N2a; type: cell-based, mouse; settings: 100 μM DNIC–COOH or 10 μM DNIC–COOMe
Description: Intracellular release of NO by DNIC–COOH was validated using the fluorescence probe 4-amino-5-methylamino-2′,7′-difluorofluorescein diacetate (DAF-FM) in combination with fluorescence analysis techniques. Briefly, the MSC cells (or N2a and HCEC cells) were seeded onto a 96-well black plate at a density of 6 × 10^3 cells/well (or 1 × 10^4 cells/well for N2a and 8 × 10^3 cells/well for HCEC cells) and incubated at 37 °C overnight. On the next day, the MSC cells were first treated with 10 μM of DAF-FM (or 5 μM for N2a and HCEC cells) and incubated at 37 °C for 0.5 h. […] Fluorescence intensity of the cells was then recorded using a microplate reader (SpectraMax iD3, Molecular Devices, San Jose, CA) with an excitation wavelength at 485 nm and an emission wavelength at 525 nm. Three independent experiments were executed to measure the time-dependent change of average fluorescence intensity. Time-dependent change of average fluorescence intensity for the MSC/N2a/HCEC cells with sequential treatment of DAF-FM (10 μM for MSC cells, 5 μM for N2a cells, 5 μM for HCEC cells; 0.5 h) and DNIC–COOMe (2.5 μM for MSC cells, 10 μM for N2a cells, 1 μM for HCEC cells) was determined in a similar manner. […]

T1 sequence (P68082 2-154 limits assumed): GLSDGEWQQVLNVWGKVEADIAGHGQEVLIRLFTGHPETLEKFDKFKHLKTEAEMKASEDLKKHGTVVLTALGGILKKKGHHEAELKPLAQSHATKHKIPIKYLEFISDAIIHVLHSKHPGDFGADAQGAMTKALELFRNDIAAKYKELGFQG

Row | SMILES | reaction time for complete conversion of metMb into MbNO [1] | reaction time for complete conversion of metMb into MbNO ([1]; listed as DNIC-COOMe) | change of UV–vis absorption bands of metMb (NO−-transfer) [1] | effect on cell viability [2] | tmax for intracellular release of NO [3] | reaction time for complete conversion of metMb into MbNO ([1]; listed as DNIC-COOH) | biocompatibility in comparison with DNIC–COOMe ([2]; MSC/N2a/HCEC)
1 | COC(=O)CC[SH]1[Fe]([N]=O)([N]=O)[SH](CCC(=O)OC)[Fe]1([N]=O)[N]=O (centres unmarked) [DNIC–COOMe, [(NO)2Fe(μ-SCH2CH2COOCH3)2Fe(NO)2]] | 4.0 ^f h | 4.0 h | no change | dose-dependent cell-proliferation effect | 2 h |  | 
2 | O=[N][Fe]1([N]=O)[SH](CCC(=O)O)[Fe]([N]=O)([N]=O)[SH]1CCC(=O)O (centres unmarked) [DNIC–COOH, [(NO)2Fe(μ-SCH2CH2COOH)2Fe(NO)2]] | 4 h and 4.0 ^f h |  | no change | dose-dependent cell-proliferation effect | 4 h | 4.0 h | improved biocompatibility
